Earlier results in patent US6342251B1, “Compositions for nasal administration” (West Pharmaceutical Services Drug Delivery & Clinical …, priority 1997, dated 2002).

Legend:
[1] = Parkinson's disease
[2] = patients, erectile dysfunction

CN1CCc2cccc3c2[C@H]1Cc1ccc(O)c(O)c1-3 [apomorphine, (6aR)-5,6,6a, 7-tetrahydro-6-methyl-4H-dibenzo(d, e, g) quinoline-10, 11-diol hemihydrate]
local reactions after intranasal administration [1]: transient nasal blockage and a burning sensation
side effects after nasal administration [2]: unacceptable side effects such as yawning, nausea, vomiting, dizziness, blurred vision, diaphoresis, pallor and mild hypertension
